Molecules are shown by their SMILES.

The experiment concerns the target AMPK. As to the kind of experiment: AMPK activation, enzyme-linked immunosorbent assay. The following applies: EC50 for AMPK activation, ELISA. The format is biochemical. As to the method: Compounds were assayed for their ability to activate AMPK using an enzyme-linked immunosorbent assay. Reagents and procedures for measuring AMPK activation are well known and kits for AMPK activation assays are commercially available.
Background: An ELISA detects its analyte on a solid surface through an enzyme-linked reagent.
Regarding `CS(=O)(=O)c1ccc(C(=O)C2CCN(C(=O)c3ccc(C(=O)N[C@@H]4CCN(Cc5ccc(OC(F)(F)F)cc5)C[C@H]4F)nc3)CC2)cc1` (relative stereo) [Compound 253, N-((trans)-3-fluoro-1-(4-(trifluoromethoxy)benzyl)piperidin-4-yl)-5-(4-(4-(methylsulfonyl)benzoyl)piperidine-1-carbonyl)picolinamide], the EC50 lay within 500 to 1000 nM.

Compound `N#Cc1ccc(OC2CCN(C(=O)c3ccc(C(=O)Nc4ccc(Oc5ccc(F)cc5)nc4)cn3)CC2)cc1` [Compound 326, 6-(4-(4-cyanophenoxy)piperidine-1-carbonyl)-N-(6-(4-fluorophenoxy)pyridin-3-yl)nicotinamide] returned an EC50 of under 500 nM. For `COc1ccc(C(=O)C2CCN(C(=O)c3ccc(C(=O)N[C@H]4CCN(Cc5ccc(C#N)cc5)C[C@@H]4F)cn3)CC2)cc1` [Compound 453, N-((3S,4S)-1-(4-cyanobenzyl)-3-fluoropiperidin-4-yl)-6-(4-(4-methoxybenzoyl)piperidine-1-carbonyl)nicotinamide] the value was under 500 nM; for `N#Cc1ccc(CN2CCC(NC(=O)c3ccc(C(=O)N4CCC(Oc5ccc(SC(F)(F)F)cc5)CC4)nn3)CC2)cc1` [Compound 436, N-(1-(4-cyanobenzyl)piperidin-4-yl)-6-(4-(4-(trifluoromethylthio)phenoxy)piperidine-1-carbonyl)pyridazine-3-carboxamide], under 500 nM. The figure for `COc1ccc(C(=O)C2CCN(C(=O)c3ccc(C(=O)NC4CCN(Cc5ccc(F)cc5)CC4)nc3)CC2)cc1` [Compound 178, N-(1-(4-fluorobenzyl)piperidin-4-yl)-5-(4-(4-methoxybenzoyl)piperidine-1-carbonyl)picolinamide] is under 500 nM; for `COc1ccc(C(=O)C2CCN(C(=O)c3ccc(C(=O)NC4CCN(Cc5cccc(OC(F)(F)F)c5)CC4)cn3)CC2)cc1` [Compound 424, 6-(4-(4-methoxybenzoyl)piperidine-1-carbonyl)-N-(1-(3-(trifluoromethoxy)benzyl)piperidin-4-yl)nicotinamide] it is under 500 nM. For `N#Cc1ccc(OC2CCN(C(=O)c3ccc(C(=O)NC4CCN(Cc5ccc(N6CCCC6)cc5)CC4)nc3)CC2)cc1` [Compound 197, 5-(4-(4-cyanophenoxy)piperidine-1-carbonyl)-N-(1-(4-(pyrrolidin-1-yl)benzyl)piperidin-4-yl)picolinamide] the value was under 500 nM; for `N#Cc1ccc(CN2CCC(NC(=O)c3ccc(C(=O)N4CCC(Oc5ccc(C#N)cc5)CC4)nc3)CC2)cc1` [Compound 323, N-(1-(4-cyanobenzyl)piperidin-4-yl)-6-(4-(4-cyanophenoxy)piperidine-1-carbonyl)nicotinamide], under 500 nM. Turning to `CS(=O)(=O)c1ccc(OC2CCN(C(=O)c3ccc(C(=O)NC4CCN(Cc5ccc(C#N)cc5)CC4)nc3)CC2)cc1` [Compound 227, N-(1-(4-cyanobenzyl)piperidin-4-yl)-5-(4-(4-(methylsulfonyl)phenoxy)piperidine-1-carbonyl)picolinamide], the half-maximal effective concentration (EC50) is under 500 nM.

Compound `N#Cc1ccc(CN2CCC(NC(=O)c3ccc(NC4CCN(c5ccc(Cl)cc5)CC4)cn3)CC2)cc1` [Compound 139, 5-(1-(4-chlorophenyl)piperidin-4-ylamino)-N-(1-(4-cyanobenzyl)piperidin-4-yl)picolinamide] showed a concentration for a half-maximal effect (EC50) of under 500 nM. For `N#Cc1ccc(CN2CCc3ccc(NC(=O)c4ccc(C(=O)NCc5ccc(F)cc5)cn4)cc3C2)cc1` [Compound 144, N2-(2-(4-cyanobenzyl)-1,2,3,4-tetrahydroisoquinolin-7-yl)-N5-(4-fluorobenzyl)pyridine-2,5-dicarboxamide] the value was 500 to 1000 nM; for `COc1ccc(C(=O)C2CCN(C(=O)c3ccc(C(=O)NC4CCN(Cc5ccc(C#N)cc5)CC4)cn3)CC2)cc1` [Compound 309, N-(1-(4-cyanobenzyl)piperidin-4-yl)-6-(4-(4-methoxybenzoyl)piperidine-1-carbonyl)nicotinamide], under 500 nM. The figure for `CC(=O)c1ccc(Oc2ccc(NC(=O)c3ccc(C(=O)N4CCN(c5ccc(S(C)(=O)=O)cc5)CC4)nc3)cn2)cc1` [Compound 487, N-(6-(4-acetylphenoxy)pyridin-3-yl)-6-(4-(4-(methylsulfonyl)phenyl)piperazine-1-carbonyl)nicotinamide] is 1000 to 5000 nM; for `CN1CCN(c2ccc(C(=O)C3CCN(C(=O)c4ccc(C(=O)NC5CCN(Cc6ccc(OC(F)(F)F)cc6)CC5)cn4)CC3)cc2)CC1` [Compound 244, 6-(4-(4-(4-methylpiperazin-1-yl)benzoyl)piperidine-1-carbonyl)-N-(1-(4-(trifluoromethoxy)benzyl)piperidin-4-yl)nicotinamide] it is 5000 to 10000 nM; for `N#Cc1ccc(CN2CCC(NC(=O)c3ccc(C(=O)N4CCN(S(=O)(=O)c5ccccc5)CC4)cn3)CC2)cc1` [Compound 82, N-(1-(4-cyanobenzyl)piperidin-4-yl)-5-(4-(phenylsulfonyl)piperazine-1-carbonyl)picolinamide] it is 500 to 1000 nM.

In turn, `CC(=O)c1ccc(Oc2ccc(NC(=O)c3ccc(C(=O)N4CCC(Oc5ccc(C(=O)N(C)C)cc5)CC4)nc3)cn2)cc1` [Compound 488, N-(6-(4-acetylphenoxy)pyridin-3-yl)-6-(4-(4-(dimethylcarbamoyl)phenoxy)piperidine-1-carbonyl)nicotinamide] showed an EC50 of under 500 nM. The figure for `CS(=O)(=O)c1ccc(N2CCC(NC(=O)c3ccc(C(=O)N4CCC(Oc5ccc(C#N)cc5)CC4)nc3)CC2)cc1` [Compound 420, 6-(4-(4-cyanophenoxy)piperidine-1-carbonyl)-N-(1-(4-(methylsulfonyl)phenyl)piperidin-4-yl)nicotinamide] is 1000 to 5000 nM. The figure for `CN1CCN(c2ccc(C(=O)C3CCN(C(=O)c4ccc(C(=O)NC5CCN(Cc6ccc(C#N)cc6)CC5)nc4)CC3)cc2)CC1` [Compound 380, N-(1-(4-cyanobenzyl)piperidin-4-yl)-5-(4-(4-(4-methylpiperazin-1-yl)benzoyl)piperidine-1-carbonyl)picolinamide] is under 500 nM; for `N#Cc1ccc(O[C@H]2CC[C@@H](NC(=O)c3ccc(C(=O)N4CCN(Cc5ccc(F)cc5)CC4)nc3)CC2)cc1` [Compound 332, N-((cis)-4-(4-cyanophenoxy)cyclohexyl)-6-(4-(4-fluorobenzyl)piperazine-1-carbonyl)nicotinamide] it is under 500 nM; for `N#Cc1ccc(OC2CCN(C(=O)c3ccc(C(=O)NC4CCN(Cc5cc(F)cc(F)c5)CC4)cn3)CC2)cc1` [Compound 322, 6-(4-(4-cyanophenoxy)piperidine-1-carbonyl)-N-(1-(3,5-difluorobenzyl)piperidin-4-yl)nicotinamide] it is under 500 nM.

`N#Cc1ccc(CN2CCC(NC(=O)c3ccc(C(=O)N4CC(Oc5ccc(C#N)cc5)C4)cn3)CC2)cc1` [Compound 209, N-(1-(4-cyanobenzyl)piperidin-4-yl)-5-(3-(4-cyanophenoxy)azetidine-1-carbonyl)picolinamide] showed a concentration giving a half-maximal response (EC50) of under 500 nM. For `O=C(Nc1ccccc1)c1ccc(C(=O)N2CCN(Cc3ccc(F)cc3)CC2)cn1` [Compound 107, 5-(4-(4-fluorobenzyl)piperazine-1-carbonyl)-N-phenylpicolinamide] the value was 5000 to 10000 nM.

One may read the EC50 as the midpoint of the concentration-response curve. The low end stands for higher potency in that assay, the high end for lower potency in that assay.

Values taken from patent US9663496B2, “AMPK-activating heterocyclic compounds and methods for using the same” (Rigel Pharmaceuticals, Inc., priority 2010, dated 2017).
